From PMC10864483, “Iron uptake pathway of Escherichia coli as an entry route for peptide nucleic acids conjugated with a siderophore mimic” (Frontiers in Microbiology, 2024)
Where a SMILES comes first, the peptide text is derived from it. [ ]: non-standard residue; d: D form. Orn(N5-OH,N5-Ac) = CC(=O)N(O)CCC[C@H](N)C(=O)O

Assay: CD spectroscopy of siderophore-iron(III) complexes
Type: physicochemical
Conditions: for Optimal Fe^3+ complex configuration: CD, phosphate buffer pH 7.0, optical isomer Λ or Δ
Source text: To elucidate the configuration of the siderophore-iron(III) complexes, we used circular dichroism (CD) spectroscopy where the minimum and maximum with Cotton effect are expected in the range of 350–490 nm ([Winkelmann, 1991]; [Matsumoto et al., 2001]). For the Λ configuration, the minimum band in the CD spectrum should be present before the maximum. Since the Δ configuration is a mirror image of the Λ configuration, the maximum band appears first ([Winkelmann, 1991]). In the presence of the Fe^3+ salt, the natural siderophores and SL solution changed from colorless to yellow after several minutes. This indicates the presence of the siderophore-ferric iron complex and further confirms the metal-binding properties of these compounds ([Winkelmann, 1991]). Based on this observation, during the CD experiments, for every siderophore, we adjusted the incubation time at the optimal concentration, ranging from 40 to 90 min (see Supplementary Figure S1).
Figure 4 CD spectra of the natural (ferrichrome and feroxamine) and synthetic (SL and SC) siderophores with Fe^3+ salt solution in phosphate buffer (pH = 7.0).
CD spectra were recorded in aqueous buffer solution (100 mM phosphate buffer, pH 7.0), in the presence of 4 mM iron(III) salt solution (FeCl3 in the phosphate buffer). To obtain optimal recording conditions, siderophore concentrations were varied in the range 0.24–1.0 mM with an incubation time of 20–90 min (Supplementary Figure S1). In all CD experiments, the siderophore-Fe^3+ molar ratio of 1:1 was maintained. The spectra were collected using the Biokine MOS-450/AF-CD spectrometer equipped with the Xe lamp using a 0.1 cm CD cell. The acquisition duration time was 2 s with a resolution of 1 nm. The measurements were performed in 100 mM phosphate buffer, pH 7.0, room temperature, and wavelength range 300–500 nm. The presented CD spectra were smoothed with the Savitzky–Golay method using GraphPad and are the averages of three scans. Each CD experiment was conducted twice to confirm the repeatability of the spectra.

[1] = siderophore with Fe^3+ salt 1:1, 100 mM phosphate buffer pH 7.0, room temperature, 300-500 nm, average of three scans

cyc(Asp-(Orn(Ac,OH))3-Gly-Lys(N3)) (head to tail) [SC, azido-Cyc(Asp-(Orn(Ac‚OH))3-GIy-Lys(N3)), cyclic hydroxamate siderophore mimic]
CD Wavelength Maximum [1]: 487 nm
Ferric iron binding (CD and color change) (with Fe^3+ salt solution, phosphate buffer pH 7.0): cannot bind ferric iron

CC(=O)N([O-])CCC[C@@H]1NC(=O)CNC(=O)CNC(=O)CNC(=O)[C@H](CCCN([O-])C(C)=O)NC(=O)[C@H](CCCN([O-])C(C)=O)NC1=O.[Fe+3] [Ferrichrome] (cyclo(GGG[Orn(N5-OH,N5-Ac)][Orn(N5-OH,N5-Ac)][Orn(N5-OH,N5-Ac)]))
Optimal Fe^3+ complex configuration: Λ
CD Wavelength Maximum [1]: 456 nm
CD Wavelength Minimum [1]: 360 nm

CC(=O)N([O-])CCCCCNC(=O)CCC(=O)N([O-])CCCCCNC(=O)CCC(=O)N([O-])CCCCCN.[Fe+3] [Feroxamine, feroxamine]
Optimal Fe^3+ complex configuration: Λ and Δ
